Laboratory results published in patent publication US7396837B2, “Antitumoral analogs of lamellarins” (Pharma Mar, S.A.U., priority 2002, dated 2008).

Legend:
Format in all cases: cell-based
HeLa = experiment: SRB colorimetric cell growth inhibition assay, HeLa; conditions: Homo sapiens, HeLa; for GI50: GI=growth inhibition, read-out: GI50 HELA; for CC50: cell killing (cytotoxic effect), read-out: LC50 HELA; for IC (TGI): total growth inhibition (cytostatic effect), read-out: TGI HELA
Summary of the method: (§1)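 Read-out: sulforhodamine B colorimetry of surviving cell mass after continued exposure of human tumour lines to sample. Values are means ± SD of three wells, expressed as GI, TGI or LC.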

IGROV = experiment: SRB colorimetric cell growth inhibition assay, IGROV; conditions: Homo sapiens, IGROV; for GI50: GI=growth inhibition, read-out: GI50 IGROV; for CC50: cell killing (cytotoxic effect), read-out: LC50 IGROV; for IC (TGI): total growth inhibition (cytostatic effect), read-out: TGI IGROV
Summary of the method: as §1

A-549 = experiment: SRB colorimetric cell growth inhibition assay, A-549; conditions: Homo sapiens, A549, A-549; for GI50: GI=growth inhibition, read-out: GI50 A-549; for CC50: cell killing (cytotoxic effect), read-out: LC50 A-549; for IC (TGI): total growth inhibition (cytostatic effect), read-out: TGI A-549
Summary of the method: as §1

LoVo-Dox = experiment: SRB colorimetric cell growth inhibition assay, LoVo-Dox (MDR); conditions: Homo sapiens, LOVO-DOX; for GI50: GI=growth inhibition, read-out: GI50 LOVO-DOX; for CC50: cell killing (cytotoxic effect), read-out: LC50 LOVO-DOX; for IC (TGI): total growth inhibition (cytostatic effect), read-out: TGI LOVO-DOX
Summary of the method: as §1

LoVo = experiment: SRB colorimetric cell growth inhibition assay, LoVo; conditions: Homo sapiens, LoVo; for GI50: GI=growth inhibition, read-out: GI50 LOVO; for CC50: cell killing (cytotoxic effect), read-out: LC50 LOVO; for IC (TGI): total growth inhibition (cytostatic effect), read-out: TGI LOVO
Summary of the method: as §1

HeLa-APL = experiment: SRB colorimetric cell growth inhibition assay, HeLa-APL (aplidine resistant); conditions: Homo sapiens, HELA-APL; for GI50: GI=growth inhibition, read-out: GI50 HELA-APL; for CC50: cell killing (cytotoxic effect), read-out: LC50 HELA-APL; for IC (TGI): total growth inhibition (cytostatic effect), read-out: TGI HELA-APL
Summary of the method: as §1

SK-BR-3 = experiment: SRB colorimetric cell growth inhibition assay, SK-BR-3; conditions: Homo sapiens, SK-BR-3, SK-BR-3; for GI50: GI=growth inhibition, read-out: GI50 SK-BR-3; for CC50: cell killing (cytotoxic effect), read-out: LC50 SK-BR-3; for IC (TGI): total growth inhibition (cytostatic effect), read-out: TGI SK-BR-3
Summary of the method: as §1

SK-MEL-28 = experiment: SRB colorimetric cell growth inhibition assay, SK-MEL-28; conditions: Homo sapiens, SK-MEL-28, MEL-28; for GI50: GI=growth inhibition, read-out: GI50 MEL-28; for CC50: cell killing (cytotoxic effect), read-out: LC50 MEL-28; for IC (TGI): total growth inhibition (cytostatic effect), read-out: TGI MEL-28
Summary of the method: as §1

IGROV-ET = experiment: SRB colorimetric cell growth inhibition assay, IGROV-ET (ET-743 resistant); conditions: Homo sapiens, IGROV-ET; for GI50: GI=growth inhibition, read-out: GI50 IGROV-ET; for CC50: cell killing (cytotoxic effect), read-out: LC50 IGROV-ET; for IC (TGI): total growth inhibition (cytostatic effect), read-out: TGI IGROV-ET
Summary of the method: as §1

HT-29 = experiment: SRB colorimetric cell growth inhibition assay, HT-29; conditions: Homo sapiens, HT-29, HT-29; for GI50: GI=growth inhibition, read-out: GI50 HT-29; for CC50: cell killing (cytotoxic effect), read-out: LC50 HT-29; for IC (TGI): total growth inhibition (cytostatic effect), read-out: TGI HT-29
Summary of the method: as §1

PANC-1 = experiment: SRB colorimetric cell growth inhibition assay, PANC-1; conditions: Homo sapiens, PANC-1, PANC-1; for GI50: GI=growth inhibition, read-out: GI50 PANC-1; for CC50: cell killing (cytotoxic effect), read-out: LC50 PANC-1; for IC (TGI): total growth inhibition (cytostatic effect), read-out: TGI PANC-1
Summary of the method: as §1

K-562 = experiment: SRB colorimetric cell growth inhibition assay, K-562; conditions: Homo sapiens, K562, K-562; for GI50: GI=growth inhibition, read-out: GI50 K-562; for CC50: cell killing (cytotoxic effect), read-out: LC50 K-562; for IC (TGI): total growth inhibition (cytostatic effect), read-out: TGI K-562
Summary of the method: as §1

LNCaP = experiment: SRB colorimetric cell growth inhibition assay, LNCaP; conditions: Homo sapiens, LNCaP, LN-caP; for GI50: GI=growth inhibition, read-out: GI50 LN-caP; for CC50: cell killing (cytotoxic effect), read-out: LC50 LN-caP; for IC (TGI): total growth inhibition (cytostatic effect), read-out: TGI LN-caP
Summary of the method: as §1

DU-145 = experiment: SRB colorimetric cell growth inhibition assay, DU-145; conditions: Homo sapiens, DU-145, DU-145; for GI50: GI=growth inhibition, read-out: GI50 DU-145; for CC50: cell killing (cytotoxic effect), read-out: LC50 DU-145; for IC (TGI): total growth inhibition (cytostatic effect), read-out: TGI DU-145
Summary of the method: as §1

SMILES: COc1cc(-c2c3c4cc(OC)c(OC(=O)[C@@H]5CCCN5)cc4oc(=O)c3n3ccc4cc(OC(=O)[C@@H]5CCCN5)c(OC)cc4c23)ccc1OC(=O)[C@@H]1CCCN1 [Compound 180]
- GI50 (HeLa): 0.0806 µM
- CC50 (HeLa): 11.1 µM
- IC (TGI) (HeLa): 1.99 µM
- GI50 (IGROV): 0.053 µM
- CC50 (IGROV): 11.1 µM
- IC (TGI) (IGROV): 0.319 µM
- GI50 (A-549): 0.0201 µM
- CC50 (A-549): 7.26 µM
- IC (TGI) (A-549): 0.233 µM
- GI50 (LoVo-Dox): 0.104 µM
- CC50 (LoVo-Dox): 11.1 µM
- IC (TGI) (LoVo-Dox): 0.498 µM
- GI50 (LoVo): 0.535 µM
- CC50 (LoVo): 8.51 µM
- IC (TGI) (LoVo): 2.01 µM
- GI50 (HeLa-APL): 0.13 µM
- CC50 (HeLa-APL): 11.1 µM
- IC (TGI) (HeLa-APL): 1.21 µM
- GI50 (SK-BR-3): 0.0181 µM
- CC50 (SK-BR-3): 1.19 µM
- IC (TGI) (SK-BR-3): 0.0541 µM
- GI50 (SK-MEL-28): 0.0134 µM
- CC50 (SK-MEL-28): 11.1 µM
- IC (TGI) (SK-MEL-28): 0.126 µM
- GI50 (IGROV-ET): 0.0691 µM
- CC50 (IGROV-ET): 11.1 µM
- IC (TGI) (IGROV-ET): 0.531 µM
- GI50 (HT-29): 11.1 µM
- CC50 (HT-29): 11.1 µM
- IC (TGI) (HT-29): 11.1 µM
- GI50 (PANC-1): 0.13 µM
- CC50 (PANC-1): 11.1 µM
- IC (TGI) (PANC-1): 0.0111 µM
- GI50 (K-562): 0.04 µM
- CC50 (K-562): 11.1 µM
- IC (TGI) (K-562): 1.53 µM
- GI50 (LNCaP): 0.053 µM
- CC50 (LNCaP): 0.615 µM
- IC (TGI) (LNCaP): 0.227 µM
- GI50 (DU-145): 0.0359 µM
- CC50 (DU-145): 11.1 µM
- IC (TGI) (DU-145): 0.0842 µM

SMILES: COc1cc(-c2c3c4cc(OC)c(OC(=O)[C@@H](N)CC(C)C)cc4oc(=O)c3n3ccc4cc(OC(=O)[C@@H](N)CC(C)C)c(OC)cc4c23)ccc1OC(=O)[C@@H](N)CC(C)C [Compound 181]
- GI50 (HeLa): 0.0478 µM
- CC50 (HeLa): 10.5 µM
- IC (TGI) (HeLa): 0.632 µM
- GI50 (IGROV): 0.038 µM
- CC50 (IGROV): 3.2 µM
- IC (TGI) (IGROV): 0.231 µM
- GI50 (A-549): 0.0198 µM
- CC50 (A-549): 8.18 µM
- IC (TGI) (A-549): 0.209 µM
- GI50 (LoVo-Dox): 0.0945 µM
- CC50 (LoVo-Dox): 10.5 µM
- IC (TGI) (LoVo-Dox): 0.47 µM
- GI50 (LoVo): 0.331 µM
- CC50 (LoVo): 10.5 µM
- IC (TGI) (LoVo): 1.1 µM
- GI50 (HeLa-APL): 0.0667 µM
- CC50 (HeLa-APL): 8.14 µM
- IC (TGI) (HeLa-APL): 0.477 µM
- GI50 (SK-BR-3): 0.0206 µM
- CC50 (SK-BR-3): 0.862 µM
- IC (TGI) (SK-BR-3): 0.0592 µM
- GI50 (SK-MEL-28): 0.0168 µM
- CC50 (SK-MEL-28): 2.14 µM
- IC (TGI) (SK-MEL-28): 0.0956 µM
- GI50 (IGROV-ET): 0.05 µM
- CC50 (IGROV-ET): 10.5 µM
- IC (TGI) (IGROV-ET): 0.341 µM
- GI50 (HT-29): 3.06 µM
- CC50 (HT-29): 10.5 µM
- IC (TGI) (HT-29): 10.5 µM
- GI50 (PANC-1): 0.0864 µM
- CC50 (PANC-1): 10.5 µM
- IC (TGI) (PANC-1): 2.09 µM
- GI50 (K-562): 0.0328 µM
- CC50 (K-562): 7.14 µM
- IC (TGI) (K-562): 0.444 µM
- GI50 (LNCaP): 0.0593 µM
- CC50 (LNCaP): 0.678 µM
- IC (TGI) (LNCaP): 0.237 µM
- GI50 (DU-145): 0.0249 µM
- CC50 (DU-145): 10.5 µM
- IC (TGI) (DU-145): 0.0594 µM

SMILES: COc1cc(-c2c3c4cc(OC)c(O)cc4oc(=O)c3n3ccc4c(N)cccc4c23)ccc1O [Compound 182]
- GI50 (HeLa): 8.52 µM
- CC50 (HeLa): 21.3 µM
- IC (TGI) (HeLa): 21.3 µM
- GI50 (IGROV): 2.86 µM
- CC50 (IGROV): 21.3 µM
- IC (TGI) (IGROV): 21.3 µM
- GI50 (A-549): 9.58 µM
- CC50 (A-549): 21.3 µM
- IC (TGI) (A-549): 21.3 µM
- GI50 (LoVo-Dox): 1.21 µM
- CC50 (LoVo-Dox): 21.3 µM
- IC (TGI) (LoVo-Dox): 21.3 µM
- GI50 (LoVo): 21.3 µM
- CC50 (LoVo): 21.3 µM
- IC (TGI) (LoVo): 21.3 µM
- GI50 (HeLa-APL): 4.46 µM
- CC50 (HeLa-APL): 21.3 µM
- IC (TGI) (HeLa-APL): 21.3 µM
- GI50 (SK-BR-3): 0.365 µM
- CC50 (SK-BR-3): 12 µM
- IC (TGI) (SK-BR-3): 1.25 µM
- GI50 (SK-MEL-28): 1.08 µM
- CC50 (SK-MEL-28): 21.3 µM
- IC (TGI) (SK-MEL-28): 21.3 µM
- GI50 (IGROV-ET): 3.16 µM
- CC50 (IGROV-ET): 21.3 µM
- IC (TGI) (IGROV-ET): 21.3 µM
- GI50 (HT-29): 21.3 µM
- CC50 (HT-29): 21.3 µM
- IC (TGI) (HT-29): 21.3 µM
- GI50 (PANC-1): 4.85 µM
- CC50 (PANC-1): 21.3 µM
- IC (TGI) (PANC-1): 21.3 µM
- GI50 (K-562): 0.316 µM
- CC50 (K-562): 21.3 µM
- IC (TGI) (K-562): 4.85 µM
- GI50 (LNCaP): 1.75 µM
- CC50 (LNCaP): 21.3 µM
- IC (TGI) (LNCaP): 21.3 µM
- GI50 (DU-145): 1.08 µM
- CC50 (DU-145): 21.3 µM
- IC (TGI) (DU-145): 21.3 µM
